{
  "source": "paper PMC9854712",
  "about": "(Antioxidants, 2023)",
  "key": {"HTB-54 cells": {"test_system": "HTB-54 cells", "assay": "MTT cell viability assay, HTB-54", "type": "cell-based", "details": "for viability at 10 µM / IC50: HTB-54, 48 h, MTT; for viability at 10 µM: read-out: Cell growth % at 10 µM, HTB-54; for SI (lung): IC50 (BEAS-2B)/IC50 (HTB-54)", "protocol": "(§1) The cell lines were obtained from the American Type Culture Collection (ATCC). Five tumor cell lines (MDA-MB-231, MCF-7, HCT116, HTB-54, and DU-145) and two non-tumorigenic cells (184B5 and BEAS-2B) were grown in RPMI 1640 medium (Gibco), and the HT-29 tumor cell line was grown in McCoy’s medium. Both mediums were supplemented with 10% fetal bovine serum (FBS; Gibco) and 1% antibiotics (10.00 units/mL penicillin and 10.00 μg/mL streptomycin; Gibco). Cells were preserved in tissue culture flasks at 37 °C and 5% CO2. The culture medium was replaced every three days.\n(§2) The effect of each compound on cell viability was tested using the MTT assay. […] Selected compounds were then tested at seven different concentrations (0.5–100 μM) in MCF-7, HCT116, HT-29, HTB-54, 184B5 and BEAS-2B cells. Cells were seeded at 10^4 per well onto flat-bottomed 96-well culture plates. They were treated with either DMSO or increasing concentration of the corresponding compound for 48 h. Then, they were incubated with 20 μL of 3-(4,5-dimethylthiazol-2-yl)-2,5-diphenyltetrazolium bromide (MTT) (2 mg /mL stock; Aldrich) for 2,5 h and analyzed for their ability to generate a purple formazan dye. These formazan crystals were dissolved in 50 μL of DMSO. The absorbance was measured at a wavelength of 550 nm and the ratio of viable cells was calculated.\n(§3) Results are expressed as cell viability % at 10 μM. Selectivity index were calculated as the ratio of the IC50 values determined for the non-malignant and the tumor cells in breast (IC50 (184B5)/IC50 (MCF-7)) and lung (IC50 (BEAS-2B)/IC50 (HTB-54)) cell lines. Data were obtained from at least three independent experiments performed in triplicates."}, "DU-145 cells": {"test_system": "DU-145 cells", "assay": "MTT cell viability assay, DU-145", "type": "cell-based", "details": "Homo sapiens, DU-145, 48 h, read-out: Cell growth % at 10 µM, DU-145", "protocol": "as §1, §2, §3"}, "HT-29 cells": {"test_system": "HT-29 cells", "assay": "MTT cell viability assay, HT-29", "type": "cell-based", "details": "Homo sapiens; for viability at 10 µM: HT-29, 10 µM, 48 h, read-out: Cell growth % at 10 µM, HT-29; for IC50: HT-29, 48 h", "protocol": "as §1, §2, §3"}, "MCF-7 cells": {"test_system": "MCF-7 cells", "assay": "MTT cell viability assay, MCF-7", "type": "cell-based", "details": "for IC50: Homo sapiens, MCF7, MTT, 48 h; for SI (breast): IC50 (184B5)/IC50 (MCF-7)", "protocol": "as §1, §2, §3"}, "BEAS-2B cells": {"test_system": "BEAS-2B cells", "assay": "MTT cell viability assay, BEAS-2B (non-tumorigenic)", "type": "cell-based", "details": "Homo sapiens, 48 h, nonmalignant bronchial epithelium", "protocol": "as §1, §2, §3"}, "184B5 cells": {"test_system": "184B5 cells", "assay": "MTT cell viability assay, 184B5 (non-tumorigenic)", "type": "cell-based", "details": "Homo sapiens, 48 h, nonmalignant mammary gland", "protocol": "as §1, §2, §3"}, "[1]": {"test_system": "NCI-H322M (non-small cell lung)", "assay": "NCI-60 Five-Dose assay, NCI-H322M", "type": "cell-based", "details": "Homo sapiens, 48 h", "protocol": "(§4) Compounds 14a and 17a were submitted to the Developmental Therapeutics Program (DTP) of National Cancer Institute (NCI). Cytotoxicity activity was evaluated by performing One-Dose screening (10^−5 M) against a panel of 60 human tumor cell lines. […] Cells grew in the RPMI 1640 medium containing 5% fetal bovine serum and 2 mM L-glutamine and were inoculated into 96-well microtiter plates in 100 μL at plating densities ranging from 5.000 to 40.000 cells/well. The microtiter plates inoculated with cells were incubated at 37 °C, in 5% humidified CO2 for 24 h prior to addition of experimental drugs. Then, experimental drugs were added, and the microtiter plates were incubated for 48 h. The protocol is available on https://dtp.cancer.gov/discovery_development/nci-60/methodology.htm accessed on 31 December 2022."}, "OVCAR-8 (ovarian)": {"test_system": "OVCAR-8 (ovarian)", "assay": "NCI-60 Five-Dose assay, OVCAR-8", "type": "cell-based", "details": "Homo sapiens, 48 h", "protocol": "as §4"}, "[2]": {"test_system": "melanoma and ovarian cancer cell lines", "assay": "NCI-60 Five-Dose assay, melanoma and ovarian lines", "type": "cell-based, human", "protocol": "as §4, with “Cytotoxicity activity was evaluated by performing One-Dose screening (10^−5 M) against a panel of 60 human tumor cell lines.” left out"}, "AChE": {"target": "T1, AChE (Rattus norvegicus, UniProt P37136)", "T1 construct": "from tissue; host or cells: frontal cortex of male Wistar rats (crude homogenate)", "T1 sequence (P37136 32-614)": "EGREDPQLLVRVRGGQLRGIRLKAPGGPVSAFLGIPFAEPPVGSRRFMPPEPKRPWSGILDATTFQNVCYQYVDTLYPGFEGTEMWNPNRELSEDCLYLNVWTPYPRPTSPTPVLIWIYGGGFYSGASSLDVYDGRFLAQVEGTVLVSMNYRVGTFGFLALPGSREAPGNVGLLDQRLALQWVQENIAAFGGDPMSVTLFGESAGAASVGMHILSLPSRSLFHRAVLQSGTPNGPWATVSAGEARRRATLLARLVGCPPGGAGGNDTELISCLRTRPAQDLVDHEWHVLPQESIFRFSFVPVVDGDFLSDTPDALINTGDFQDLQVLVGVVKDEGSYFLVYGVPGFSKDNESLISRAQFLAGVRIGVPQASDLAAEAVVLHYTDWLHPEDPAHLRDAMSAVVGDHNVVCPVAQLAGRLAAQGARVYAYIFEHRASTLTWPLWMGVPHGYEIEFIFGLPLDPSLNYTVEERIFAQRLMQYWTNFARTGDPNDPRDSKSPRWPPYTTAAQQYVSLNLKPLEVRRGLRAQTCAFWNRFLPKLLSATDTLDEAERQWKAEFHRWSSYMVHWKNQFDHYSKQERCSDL", "assay": "AChE inhibition by Ellman's method (rat frontal cortex homogenate)", "type": "biochemical", "protocol": "Frontal cortex tissue obtained from male Wistar rats was homogenized in 39 volumes of 75 mM sodium phosphate buffer (pH 7.4). A mixture of 260 μL containing the compounds assessed, acetylthiocholine iodide and 5 μL tissue homogenate was incubated for 8 min. The reaction was then terminated by adding 50 μL 3% (w/v) sodium dodecyl sulphate followed by 50 μL 0.2% (w/v) 5,5′-dithio-bis(2-nitrobenzoic) acid to produce the yellow anion of 5-thio-2-nitro-benzoic-acid. The extent of the color production was measured spectrophotometrically at 405 nm using Multiskan Ex (Thermo Electron Corporation). […] Results are expressed as the mean ± SD and each experiment was repeated three times."}},
  "data": [
    {"smiles": "C=CC[Se]C(=O)Cc1c(C)n(C(=O)c2ccc(Cl)cc2)c2ccc(OC)cc12", "note": "[Compound 17a, Se-allyl 2-[1-(4-chlorobenzoyl)-5-methoxy-2-methyl-1H-indol-3-yl]ethaneselenoate]", "values": [
      {"measurement": "viability at 10 µM", "setting": "HTB-54 cells", "result": "21.9 ± 6.5", "unit": "%"},
      {"measurement": "IC50", "setting": "HTB-54 cells", "result": "7.9 ± 1.9", "unit": "µM"},
      {"measurement": "SI (lung)", "setting": "HTB-54 cells", "result": 0.8},
      {"measurement": "viability at 10 µM", "setting": "DU-145 cells", "result": "16.3 ± 8.4", "unit": "%"},
      {"measurement": "viability at 10 µM", "setting": "HT-29 cells", "result": "38.7 ± 6", "unit": "%"},
      {"measurement": "IC50", "setting": "HT-29 cells", "result": "5.9 ± 0.8", "unit": "µM"},
      {"measurement": "IC50", "setting": "MCF-7 cells", "result": "9.8 ± 0.3", "unit": "µM"},
      {"measurement": "SI (breast)", "setting": "MCF-7 cells", "result": 1.4},
      {"measurement": "IC50", "setting": "BEAS-2B cells", "result": "6.3 ± 2.3", "unit": "µM"},
      {"measurement": "IC50", "setting": "184B5 cells", "result": "13.3 ± 3.9", "unit": "µM"},
      {"measurement": "GI50", "setting": "[1]", "result": 0.42, "unit": "µM"},
      {"measurement": "GI50", "setting": "OVCAR-8 (ovarian)", "result": 1.7, "unit": "µM"},
      {"measurement": "LD50", "setting": "[2]", "result": "below 9.2 µM"},
      {"measurement": "inhibition at 1 µM", "setting": "AChE; at 10^−6 M, Ellman's method", "result": "19.2 ± 8.3", "unit": "%"}
    ]},
    {"smiles": "C=CC[Se]C(=O)c1ccccc1OC(C)=O", "note": "[Compound 14a, 2-(allylselanylcarbonyl)phenylacetate]", "values": [
      {"measurement": "viability at 10 µM", "setting": "HTB-54 cells", "result": "34.2 ± 6.2", "unit": "%"},
      {"measurement": "IC50", "setting": "HTB-54 cells", "result": "9.9 ± 1.1", "unit": "µM"},
      {"measurement": "SI (lung)", "setting": "HTB-54 cells", "result": 0.7},
      {"measurement": "viability at 10 µM", "setting": "DU-145 cells", "result": "16.9 ± 8.6", "unit": "%"},
      {"measurement": "viability at 10 µM", "setting": "HT-29 cells", "result": "53.9 ± 5.3", "unit": "%"},
      {"measurement": "IC50", "setting": "HT-29 cells", "result": "6.4 ± 1", "unit": "µM"},
      {"measurement": "IC50", "setting": "MCF-7 cells", "result": "9.9 ± 0.9", "unit": "µM"},
      {"measurement": "SI (breast)", "setting": "MCF-7 cells", "result": 1.0},
      {"measurement": "IC50", "setting": "BEAS-2B cells", "result": "7.1 ± 2.4", "unit": "µM"},
      {"measurement": "IC50", "setting": "184B5 cells", "result": "10.2 ± 0.1", "unit": "µM"},
      {"measurement": "GI50", "setting": "[1]", "result": 0.34, "unit": "µM"},
      {"measurement": "GI50", "setting": "OVCAR-8 (ovarian)", "result": 1.5, "unit": "µM"},
      {"measurement": "LD50", "setting": "[2]", "result": "below 9.2 µM"},
      {"measurement": "IC50", "setting": "AChE", "result": "0.9 ± 0.2", "unit": "µM"},
      {"measurement": "% AChE Inhibition", "setting": "AChE; at 10^−6 M, Ellman's method", "result": "43.5 ± 2.6", "unit": "%"},
      {"measurement": "inhibition at 1 µM", "setting": "AChE; at 10^−6 M, Ellman's method", "result": 43.5, "unit": "%"}
    ]}
  ]
}
